Measured values taken from PMC13267291, “In vivo functional profiling and structural characterization of the human GLP1R A316T variant” (Science Advances, 2026).

Assays:
[1] = test system: INS-1 832/3 Glp1r^−/− SNAP/FLAG-hGLP1R^A316T cells; assay: Lysosomal inhibition assay, surface GLP-1R in INS-1 832/3 cells; type: cell-based, rat; conditions: 400 nM, 2 hours; comparable to WT; n = 5; Fig. 7D
Protocol: (§1) INS-1 832/3 Glp1r^−/− SNAP/FLAG-hGLP1R^WT or ^A316T cells on coverslips, mouse hGLP1R^−/− islets transduced with pAV-SNAP/FLAG-hGLP1R^WT or ^A316T adenoviruses, or hGLP1R^A316T/A316T and ^+/+ control islets were incubated for 2 hours ± 400 nM bafilomycin-A1 (Sigma-Aldrich), an established vacuolar H^+-ATPase and lysosomal trafficking inhibitor ([98]), in complete medium. Cells and transduced hGLP1R^−/− islets were then labeled with 1 μM SNAP-Surface 549, and hGLP1R^A316T/A316T versus ^+/+ islets were treated with exendin-9–TMR in complete medium at 37°C for 10 min. Cells were washed and fixed in 4% PFA, mounted in Prolong Diamond antifade reagent with DAPI, while islets were loaded onto glass-bottom MatTek dishes in PBS, and images were acquired by confocal microscopy with a Zeiss LSM-780 inverted confocal laser scanning microscope and a 63×/1.4 numerical aperture oil immersion objective from the Imperial College FILM Facility. Images were analyzed using Fiji.

[2] = test system: hGLP1R^−/− mouse islets transduced with SNAP/FLAG-hGLP1R^WT versus ^A316T; islets from hGLP1R^+/+ versus ^A316T/A316T mice; assay: Lysosomal inhibition assay, surface GLP-1R in mouse islets; type: cell-based; conditions: 400 nM, 2 hours; n = 3 and n = 4; Fig. 7E,F
Protocol: as §1

[3] = test system: human GLP-1R A316T versus WT; assay: Insulin secretion assay in mouse islets; type: cell-based; conditions: HFHS-fed mouse islets; 11 mM glucose + 100 nM; fig. S6I
Protocol: Purified mouse islets used for insulin secretion assays were treated in 24-well nonadherent plates. Eight islets were used per replicate with three technical replicates per condition. For acute studies, islets were preincubated for 1 hour in KRBH buffer containing 0.1% (w/v) bovine serum albumin (BSA) (10775835001, Roche) and 3 mM glucose before incubation with 11 mM glucose ± 100 nM GLP-1RAs or the GLP-1R antagonist exendin-9 in KRBH buffer in a shaking 37°C water bath (80 rpm) for 1 hour. For overnight studies, preincubation was carried out in RPMI 1640 medium containing FBS, P/S, and 3 mM glucose, followed by treatment with medium supplemented with 11 mM glucose ± GLP-1RAs for 16 hours. Supernatants containing secreted insulin were collected, centrifuged at 1000 rpm for 1 min, and transferred to fresh tubes. For total insulin content, islets were lysed using acidic ethanol (75% ethanol, 1.5 mM HCl). Lysates were sonicated 3× 10 s each in a water bath and centrifuged at 10,000g for 10 min, and supernatants were collected. For human islets, the same experiment was performed with islets previously transduced with pAV-SNAP/FLAG-hGLP1R^WT or ^A316T adenoviruses (generated by VectorBuilder) at a multiplicity of infection of 1, 24 hours before the start of experiments. Insulin secretion assays with the human EndoC-βH3 cell line were performed following 3 weeks of treatment with 4-hydroxytamoxifen as above, followed by transduction with pAV-SNAP/FLAG-hGLP1R^WT or ^A316T adenoviruses, with insulin secretion assessed as previously described ([54]), with the following modifications: After preincubation with 0.5 mM glucose KRBH buffer, cells were stimulated with 15 mM glucose ± exendin-4 for 60 min. Total and secreted insulin samples from islets and cells were stored at −20°C until quantification using an Insulin Ultra-Sensitive HTRF kit (#62IN2PEG, Revvity) in a PHERAstar plate reader (BMG Labtech), according to the manufacturer’s instructions.

Molecule | Surface expression levels of GLP-1R A316T after lysosomal inhibition [1] | Surface GLP-1R A316T after lysosomal inhibition in islets [2] | Basal insulin secretion of A316T islets on exposure to antagonist/inverse agonist [3]
CO/C1=C\C(C)=C\[C@@H](C)[C@@H](O)[C@@H](C)C/C(C)=C/C=C/[C@H](OC)[C@@H]([C@@H](C)[C@@H](O)[C@H](C)[C@@]2(O)C[C@@H](O)[C@H](C)[C@@H](C(C)C)O2)OC1=O [bafilomycin A1] | complete recovery of surface expression levels | same effect | 
exendin-9 |  |  | significantly reduced
